According to PMC10958225, “Therapeutic potential of orally applied KB-R7943 in streptozotocin-induced neuropathy in rats” (Heliyon, 2024):

Experiments:
NCX3 = system: NCX3; parameters: method as in PMID 9688596; details: cited from earlier work
[1] = system: STZ-treated rats with neuropathy; assay: Coat state score; assay type: in vivo, rat; details: chronic p.o. treatment from day 28, day 42
Procedure: On the day of diabetic state induction, rats were deprived of food for 6 h (from 8 a.m. to 2 p.m.). A single i.p. injection was applied with 55 mg/kg STZ in the ice-cold citrate buffer (0.1 M pH 4.4). The observed polydipsia, polyuria, reduced thriving with lower body weight, and poor coating appearance indirectly indicated the development of diabetes. On day 28, after 6 h of fasting, blood glucose was measured with an Xpress Statstrip Glucometer (Nova Biomedical Corporation, Waltham, MA, USA) from the tail vein. A cut-off value of blood glucose >13 mmol/l was adopted. […] Controls were once i.p. injected with ice-cold citrate buffer 0.1 M pH 4.4 only.
Three animals per cage were housed for the experiment 2 (Fig. 3B). […] Body weight (BW), coat score (CS), CPT, R–S, and FT were evaluated on day 28th post-STZ, and after that, rats were distributed into the treatment groups as follows. • C-Veh – Controls, vehiculum treatment (n = 12) • NP-Veh – STZ-treated rats with neuropathy, vehiculum treatment (n = 12) • NP-KB-R7943 – 5 mg - STZ-treated rats, with neuropathy, KB-R7943 5 mg/kg treatment (n = 12) • NP-KB-R7943 – 10 mg – STZ-treated rats, with neuropathy, KB-R7943 10 mg/kg (n = 12) • NP-AMT – 10 mg - STZ-treated rats, with neuropathy, amitriptyline 10 mg/kg (n = 12). […]
Coat state, water consumption, and body weight were evaluated weakly. […] Water consumption was measured per cage. […]

## N=C(N)SCCc1ccc(OCc2ccc([N+](=O)[O-])cc2)cc1 [KB-R7943, [(2-{4-[(4-nitrophenyl)methoxy]phenyl}ethyl)sulfanyl]methanimidamide]
NCX3
  potency as inhibitor of NCX3 relative to NCX1 and NCX2: three-fold more potent inhibitor of NCX3 than NCX1 and NCX2
[1]
  effect on coat score: ameliorated
